pIC50: −log10 of the molar value.
Test system: 653999-131-R-J2-PDC complex spheroids, growth % test/control
Test: Anticancer human tumor 653999-131-R-J2-PDC patient-derived lung adenocarcinoma cell line growth inhibition [AhR]
Settings: for pIC50: curve of first compound; for viability, T/C: stronger effect = lower value
Method in brief: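 Spheroids combined tumor cells with HUVEC endothelial cells and human MSCs as stroma. AhR antagonists were paired with standard or investigational drugs, each dosed in half-log steps down from near clinical Cmax, or from 10 microM where Cmax was unknown.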

[1] = second compound 0.1 µM, first compound 0.0316 µM
[2] = second compound 0.1 µM, first compound 0.1 µM
[3] = second compound 0.1 µM, first compound 0.316 µM
[4] = second compound 0.1 µM, first compound 1 µM
[5] = second compound 0.1 µM, first compound 3.16 µM
[6] = second compound 0.1 µM, first compound 10 µM
[7] = second compound 0.316 µM, first compound 0.0316 µM
[8] = second compound 0.316 µM, first compound 0.1 µM
[9] = second compound 0.316 µM, first compound 0.316 µM
[10] = second compound 0.316 µM, first compound 1 µM
[11] = second compound 0.316 µM, first compound 3.16 µM
[12] = second compound 0.316 µM, first compound 10 µM
[13] = second compound 1 µM, first compound 0.0316 µM
[14] = second compound 1 µM, first compound 0.1 µM
[15] = second compound 1 µM, first compound 0.316 µM
[16] = second compound 1 µM, first compound 1 µM
[17] = second compound 1 µM, first compound 3.16 µM
[18] = second compound 1 µM, first compound 10 µM
[19] = second compound 3.16 µM, first compound 0.0316 µM
[20] = second compound 3.16 µM, first compound 0.1 µM
[21] = second compound 3.16 µM, first compound 0.316 µM
[22] = second compound 3.16 µM, first compound 1 µM
[23] = second compound 3.16 µM, first compound 3.16 µM
[24] = second compound 3.16 µM, first compound 10 µM
[25] = second compound 10 µM, first compound 0.0316 µM
[26] = second compound 10 µM, first compound 0.1 µM
[27] = second compound 10 µM, first compound 0.316 µM
[28] = second compound 10 µM, first compound 1 µM
[29] = second compound 10 µM, first compound 3.16 µM
[30] = second compound 10 µM, first compound 10 µM
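Further: spheroids exposed to agents for seven days.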
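Wherever viability, T/C is given: 100% = DMSO vehicle control viability.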

| Structure (SMILES) | pIC50 (second compound 0.1 µM) | pIC50 (second compound 0.316 µM) | pIC50 (second compound 1 µM) | pIC50 (second compound 3.16 µM) | pIC50 (second compound 10 µM) | viability, T/C [1] [%] | viability, T/C [2] [%] | viability, T/C [3] [%] | viability, T/C [4] [%] | viability, T/C [5] [%] | viability, T/C [6] [%] | viability, T/C [7] [%] | viability, T/C [8] [%] | viability, T/C [9] [%] | viability, T/C [10] [%] | viability, T/C [11] [%] | viability, T/C [12] [%] | viability, T/C [13] [%] | viability, T/C [14] [%] | viability, T/C [15] [%] | other results |
| --- | --- | --- | --- | --- | --- | --- | --- | --- | --- | --- | --- | --- | --- | --- | --- | --- | --- | --- | --- | --- | --- |
| CC1(C)CCC(CN2CCN(c3ccc(C(=O)NS(=O)(=O)c4ccc(NCC5CCOCC5)c([N+](=O)[O-])c4)c(Oc4cnc5[nH]ccc5c4)c3)CC2)=C(c2ccc(Cl)cc2)C1 + CC(CO)NC(=O)c1cc(-c2ccc(Cl)cc2)nn(-c2cnn(C)c2)c1=O | < 5.00 | < 5.00 | < 5.00 | < 5.00 | < 5.00 | 105 | 101 | 99.6 | 94.1 | 108 | 71.2 | 98 | 101 | 103 | 89.8 | 94 | 71 | 90.8 | 104 | 107 | viability, T/C [16]: 98.4%; viability, T/C [17]: 103%; viability, T/C [18]: 80.3%; viability, T/C [19]: 96.2%; viability, T/C [20]: 101%; viability, T/C [21]: 106%; viability, T/C [22]: 108%; viability, T/C [23]: 95.3%; viability, T/C [24]: 75.1%; viability, T/C [25]: 99%; viability, T/C [26]: 107%; viability, T/C [27]: 111%; viability, T/C [28]: 105%; viability, T/C [29]: 92.5%; viability, T/C [30]: 74.5% |
| COc1ccc([C@@H](O)c2cc(-c3ncnc4cc(N5CCOCC5)ccc34)c(F)cc2Cl)nn1 + CC(CO)NC(=O)c1cc(-c2ccc(Cl)cc2)nn(-c2cnn(C)c2)c1=O | 5.07 | 5.11 | 5.09 | 5.15 | 5.16 | 91.5 | 86.9 | 85.4 | 73.6 | 63.9 | 47.6 | 89.9 | 90.2 | 87.8 | 80 | 66.8 | 45.2 | 90.4 | 95.4 | 95.2 | viability, T/C [16]: 84.5%; viability, T/C [17]: 65.4%; viability, T/C [18]: 46.6%; viability, T/C [19]: 96%; viability, T/C [20]: 96.8%; viability, T/C [21]: 100%; viability, T/C [22]: 77.4%; viability, T/C [23]: 60.3%; viability, T/C [24]: 45.4%; viability, T/C [25]: 90%; viability, T/C [26]: 95.3%; viability, T/C [27]: 90.8%; viability, T/C [28]: 75.3%; viability, T/C [29]: 59.5%; viability, T/C [30]: 45.6% |
| COc1cc(C2c3cc4c(cc3C(OC3OC5COC(C)OC5C(O)C3O)C3COC(=O)C23)OCO4)cc(OC)c1O (stereo not given) + CC(CO)NC(=O)c1cc(-c2ccc(Cl)cc2)nn(-c2cnn(C)c2)c1=O | 5.90 | 6.05 | 6.03 | 6.08 | 6.07 | 87.5 | 79.2 | 73.9 | 51.9 | 37.8 | 28.9 | 82.3 | 85.8 | 63.5 | 48.4 | 36.5 | 26.6 | 86.5 | 80.2 | 77.2 | viability, T/C [16]: 48%; viability, T/C [17]: 34.7%; viability, T/C [18]: 30.2%; viability, T/C [19]: 79.4%; viability, T/C [20]: 80.9%; viability, T/C [21]: 72.5%; viability, T/C [22]: 44.1%; viability, T/C [23]: 42.8%; viability, T/C [24]: 28.8%; viability, T/C [25]: 83.2%; viability, T/C [26]: 83%; viability, T/C [27]: 62.6%; viability, T/C [28]: 49.4%; viability, T/C [29]: 31.6%; viability, T/C [30]: 25.6% |
